{"source": "patent US6924414B2", "about": "“Muir-torre-like syndrome in Fhit deficient mice” (Thomas Jefferson University, priority 2000, dated 2005)", "key": {"[1]": {"tested_on": "Fhit +/+ mice", "assay": "Carcinogenicity study: NMBA tumor induction in Fhit +/+ mice", "type": "in vivo, mouse (C57BL/6J X 129/SvJ) F1", "procedure": "(§1) (C57BL/6J X 129/SvJ) F1 mice (B6129F1s) that were Fhit +/+ or +/− were produced. 18 Fhit +/+ and 22 Fhit +/− mice (30-46 weeks) were given 8 intragastric doses of NMBA (Ash Stevens, Detroit, Mich.) over the course of 3 weeks at 2 mg/kg body weight. About half the mice were sacrificed six weeks after the final NMBA dose and the remaining mice at ten weeks. Tumor incidence differences were analyzed by two-tailed Fisher's exact test (Armitage and Berry, 1987, Statistical Methods in Medical Research, 2nd Ed., Blackwell Scientific, Oxford). For comparison, four untreated Fhit +/− mice (54-59 weeks old) and one untreated Fhit +/+ mouse (59 weeks old) were similarly autopsied. At autopsy, whole esophagi and stomachs were removed and opened longitudinally. Other tissues with apparent tumors were also examined. The number of animals bearing tumors in the esophagus, forestomach, squamocolumnar junction with the glandular stomach (SCJ) and other tissues were scored. Tissues were fixed in buffered formalin and examined histologically after hematoxylin and eosin (H&E) staining for the presence of hyperkeratosis, parakeratosis, dysplasia, papillomas, adenomas and carcinomas."}, "[2]": {"tested_on": "Fhit +/− mice", "assay": "Carcinogenicity study: NMBA tumor induction in Fhit +/− mice", "type": "in vivo, mouse (C57BL/6J X 129/SvJ) F1", "procedure": "as §1"}, "[3]": {"tested_on": "Fhit exons 4 through 9", "assay": "Fhit sequence analysis of NMBA-induced tumors", "design": "species or system mouse", "conditions": "DNA from sebaceous tumors of mice 21, 27, 31 and squamous papillomas of mice 25, 27", "text": "Primer pairs flanking each of the human FHIT exons (Druck et al., […], Cancer Res. 57:504-512) and the mouse FHIT coding exons were used in PCR amplification of DNA from MTS cases or mouse tumors, respectively. Primer pairs surrounding the mouse FHIT exons were previously published (Pekarsky et al., 1998, Cancer Res. 58:3401-3408) for exons 5 and 6 or newly designed […]\nThe products were purified with a PCR purification kit (Qiagen) before sequencing using Taq DyeDeoxy Terminator Cycle Sequencing Kits (ABI). Sequencing reaction products were electrophoresed and recorded on a 377 DNA sequencer (ABI). Southern Blot Analysis"}, "[4]": {"tested_on": "esophageal and forestomach tumors", "conditions": "administered by gavage or in the drinking water; cited from earlier work"}, "[5]": {"conditions": "Fhit +/+, individual mice, 10 weeks after NMBA, T = tumors"}, "[6]": {"conditions": "Fhit +/−, individual mice, 10 weeks after NMBA, T = tumors"}}, "note": "Values joined by “and” are separate entries in the source; they are usually repeats but may differ in a detail not shown here. Equal entries are not always repeated. “Also recorded” adds a separate entry of the source. Marks after values point to notes of the source that are not given here."}
{"substance": "N-nitrosomethylbenzylamine [NMBA]", "values": [{"measurement": "Fraction of tumor bearing animals, Fore stomach", "setting": "[1]; 6 wk post-treatment, Fhit +/+", "result": "1/10"}, {"measurement": "Fraction of tumor bearing animals, SCJ", "setting": "[1]; 6 wk post-treatment, Fhit +/+", "result": "0/10"}, {"measurement": "Tumor Bearing Mice", "setting": "[1]; 6 wk post-treatment, Fhit +/+", "result": "2/10"}, {"measurement": "Fraction of tumor bearing animals, Esoph", "setting": "[1]; 6 wk post-treatment, Fhit +/+, number of mice with tumors/number of mice, 8 intragastric doses 2 mg/kg", "result": "1/10"}, {"measurement": "Fraction of tumor bearing animals, Esoph", "setting": "[1]; 10 wk post-treatment, Fhit +/+", "result": "0/8"}, {"measurement": "Fraction of tumor bearing animals, Fore stomach", "setting": "[1]; 10 wk post-treatment, Fhit +/+", "result": "1/8"}, {"measurement": "Fraction of tumor bearing animals, SCJ", "setting": "[1]; 10 wk post-treatment, Fhit +/+", "result": "1/8"}, {"measurement": "Fraction of tumor bearing animals, Sebaceous", "setting": "[1]; 10 wk post-treatment, Fhit +/+", "result": "0/8"}, {"measurement": "Tumor Bearing Mice", "setting": "[1]; 10 wk post-treatment, Fhit +/+", "result": "2/8"}, {"measurement": "Extragastric tumors", "setting": "[1]; Fhit +/+ mice", "result": "not observed"}, {"measurement": "Comments (by histology)", "setting": "[1]; Fhit +/+, individual mice, 10 weeks after NMBA", "result": "sq papillomas; also recorded: papillary hyperplasia, esophagus; also recorded: adenoma"}, {"measurement": "Phenotype Esoph.", "setting": "[1]; [5]", "result": "thick"}, {"measurement": "Phenotype Forestomach", "setting": "[1]; [5]", "result": "thick; also recorded: sm. T"}, {"measurement": "Phenotype SCJ", "setting": "[1]; [5]", "result": "thick and 7T+3 mm"}, {"measurement": "body wt. (amount of wt. change during the experiment)", "setting": "[1]; Fhit +/+, individual mice, 10 weeks after NMBA, given with ↑", "result": "↑1 g and ↑4 g (3×) and ↑6 g and ↑3 g (2×) and ↑2 g"}, {"measurement": "Mice developing sebaceous tumors", "setting": "[1]; NMBA treated Fhit +/+ mice", "result": "none"}, {"measurement": "Esophageal squamous papilloma by histological examination", "setting": "[1]; six weeks after NMBA, Fhit +/+", "result": "1/10"}, {"measurement": "Mice showing a very small tumor of the esophagus or forestomach on inspection", "setting": "[1]; six weeks after treatment, Fhit +/+", "result": "two of ten"}, {"measurement": "Mice with tumors", "setting": "[1]; six weeks post NMBA, Fhit +/+, histology", "result": 20, "unit": "%"}, {"measurement": "Tumor burden (mice exhibiting tumors)", "setting": "[1]; ten weeks post NMBA, Fhit +/+", "result": 25, "unit": "%"}, {"measurement": "Mice exhibiting tumors on inspection", "setting": "[1]; ten weeks, Fhit +/+", "result": "two of eight"}, {"measurement": "Fraction of tumor bearing animals, Fore stomach", "setting": "[2]; 6 wk post-treatment, Fhit +/−", "result": "5/10"}, {"measurement": "Fraction of tumor bearing animals, SCJ", "setting": "[2]; 6 wk post-treatment, Fhit +/−", "result": "4/10"}, {"measurement": "Tumor Bearing Mice", "setting": "[2]; 6 wk post-treatment, Fhit +/−", "result": "7/10"}, {"measurement": "Fraction of tumor bearing animals, Esoph", "setting": "[2]; 6 wk post-treatment, Fhit +/−, 1 esophagus showed dysplasia", "result": "0/10^b"}, {"measurement": "Fraction of tumor bearing animals, Esoph", "setting": "[2]; 10 wk post-treatment, Fhit +/−", "result": "2/12"}, {"measurement": "Fraction of tumor bearing animals, Fore stomach", "setting": "[2]; 10 wk post-treatment, Fhit +/−", "result": "10/12"}, {"measurement": "Fraction of tumor bearing animals, SCJ", "setting": "[2]; 10 wk post-treatment, Fhit +/−", "result": "5/12"}, {"measurement": "Fraction of tumor bearing animals, Sebaceous", "setting": "[2]; 10 wk post-treatment, Fhit +/−", "result": "7/12"}, {"measurement": "Tumor Bearing Mice", "setting": "[2]; 10 wk post-treatment, Fhit +/−", "result": "12/12"}, {"measurement": "Comments (by histology)", "setting": "[2]; Fhit +/−, individual mice, 10 weeks after NMBA", "result": "sq. carcinoma forestomach, sq. pap. SCJ; also recorded: sq. pap. forestomach, Barretts-like gastric mucosa SCJ; also recorded: sq. pap. and adenoma forestomach; also recorded: sq. pap. and sq. carcinoma forestomach; also recorded: sq. pap. esoph, forestomach, SCJ; also recorded: sebaceous adnexal tumor; also recorded: sq. pap. esoph and forestomach, seb. tumor; also recorded: sq. pap. forestomach, sebaccous tumor; also recorded: hyperplastic gastric mucosa, SCJ sq. pap. seb. tumor; also recorded: forestomach sq. papillomas; sebaceous tumor"}, {"measurement": "Phenotype Forestomach", "setting": "[2]; [6]", "result": "2T and few sm. T and multiple T (3×) and T.2-3 mm"}, {"measurement": "Phenotype SCJ", "setting": "[2]; [6]", "result": "few T; also recorded: multiple T"}, {"measurement": "body wt. (amount of wt. change during the experiment)", "setting": "[2]; Fhit +/−, individual mice, 10 weeks after NMBA, given with ↑", "result": "↑3 g (2×) and ↑2 g (3×) and ↑4 g (4×) and ↑8 g (2×) and ↑6 g"}, {"measurement": "Mice with large (>5×5 mm) sebaceous tumors", "setting": "[2]; NMBA treated Fhit +/− mice under 1 yr. of age", "result": "5 of 12"}, {"measurement": "Mice with one or more subcutis tumors in abdominal, mammary or axial area on autopsy", "setting": "[2]; autopsy at 10 weeks, Fhit +/−", "result": "more than 50%"}, {"measurement": "Mice developing a spectrum of visceral and skin tumors", "setting": "[2]; by ten weeks after NMBA exposure, Fhit +/−", "result": "all"}, {"measurement": "Mice showing tumors in the subcutis of the abdomen (visible before autopsy)", "setting": "[2]; by ten weeks after the final dose, Fhit +/−", "result": "three"}, {"measurement": "Mice showing one or more small tumors on inspection of whole esophagus and stomach", "setting": "[2]; six weeks after treatment, Fhit +/−", "result": "seven of ten"}, {"measurement": "Mice with tumors", "setting": "[2]; six weeks post NMBA, Fhit +/−, histology", "result": 70, "unit": "%"}, {"measurement": "Tumor burden (mice exhibiting tumors)", "setting": "[2]; ten weeks post NMBA, Fhit +/−", "result": 100, "unit": "%"}, {"measurement": "Mice showing apparent tumors in forestomach, squamocolumnar junction and/or other tissues", "setting": "[2]; ten weeks, Fhit +/−, inspection", "result": "eleven of twelve"}, {"measurement": "NMBA-induced mutations within Fhit exons 4 through 9", "setting": "[3]", "result": "No mutations were detected"}, {"measurement": "Tumor induction", "setting": "[4]", "result": "induce both esophageal and forestomach tumors"}]}
